Key:
[1] = system: wildtype Wnt signaling cascade; test: HEK293 TOP Assay (Super TopFlash luciferase reporter, Wnt-3a stimulated); assay type: cell-based
Outline: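 HEK293 cells stably carrying Super TopFlash (TOP) or FOP reporter, stimulated with recombinant human Wnt-3a (2500–5 ng/ml, two-fold steps). Both lines incubated in parallel with compound from 50 μM to 15 nM (3.16-fold) in CAFTY buffer pH 7.4 with 2 mM Ca2+ and 0.01% BSA; selectivity judged TOP vs FOP.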

TNKS1 = molecular target: T1, TNKS1 (Homo sapiens, UniProt O95271); test: Modified TNKS1 Assay 3 (BPS kit #80573, biotin-NAD+, 96 well); assay type: biochemical; settings: human TNKS1, BPS kit #80573, 96 well
T1 sequence (O95271 1-1327): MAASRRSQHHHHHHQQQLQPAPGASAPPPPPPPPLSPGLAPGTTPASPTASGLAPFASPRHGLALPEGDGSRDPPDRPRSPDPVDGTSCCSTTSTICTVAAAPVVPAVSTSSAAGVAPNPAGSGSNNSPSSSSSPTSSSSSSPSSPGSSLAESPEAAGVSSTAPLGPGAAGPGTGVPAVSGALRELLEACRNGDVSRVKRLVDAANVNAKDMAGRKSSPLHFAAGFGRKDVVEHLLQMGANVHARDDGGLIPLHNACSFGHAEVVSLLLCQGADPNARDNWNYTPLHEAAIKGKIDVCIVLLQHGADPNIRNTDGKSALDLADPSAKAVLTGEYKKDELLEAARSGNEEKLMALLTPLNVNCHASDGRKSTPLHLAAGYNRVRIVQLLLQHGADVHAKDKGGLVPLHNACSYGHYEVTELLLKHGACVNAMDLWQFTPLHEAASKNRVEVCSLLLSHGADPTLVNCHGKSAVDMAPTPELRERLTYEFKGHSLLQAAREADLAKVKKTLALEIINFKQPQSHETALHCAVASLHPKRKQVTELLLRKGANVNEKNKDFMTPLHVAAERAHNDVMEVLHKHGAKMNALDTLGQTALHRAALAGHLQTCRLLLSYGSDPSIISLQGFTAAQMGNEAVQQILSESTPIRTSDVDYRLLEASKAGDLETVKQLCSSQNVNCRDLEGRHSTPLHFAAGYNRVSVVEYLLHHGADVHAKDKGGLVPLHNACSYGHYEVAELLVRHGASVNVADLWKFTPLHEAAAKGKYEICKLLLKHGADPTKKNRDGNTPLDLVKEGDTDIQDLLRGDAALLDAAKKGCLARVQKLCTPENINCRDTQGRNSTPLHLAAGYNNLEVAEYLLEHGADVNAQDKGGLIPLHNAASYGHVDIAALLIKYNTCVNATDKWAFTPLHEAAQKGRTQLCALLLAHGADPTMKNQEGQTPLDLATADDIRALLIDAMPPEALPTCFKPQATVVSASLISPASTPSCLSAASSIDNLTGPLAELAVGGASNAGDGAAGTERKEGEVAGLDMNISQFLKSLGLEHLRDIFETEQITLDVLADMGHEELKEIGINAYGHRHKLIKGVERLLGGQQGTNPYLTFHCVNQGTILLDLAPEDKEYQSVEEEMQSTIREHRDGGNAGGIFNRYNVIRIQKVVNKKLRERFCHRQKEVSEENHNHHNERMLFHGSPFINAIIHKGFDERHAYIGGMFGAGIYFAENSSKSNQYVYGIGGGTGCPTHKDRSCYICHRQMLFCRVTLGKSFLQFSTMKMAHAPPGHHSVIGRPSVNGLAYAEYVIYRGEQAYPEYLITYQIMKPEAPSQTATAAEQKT
Outline: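 Chemiluminescent assay of TNKS1-catalysed ribosylation of a protein substrate with biotin-labelled NAD+, detected via streptavidin-HRP; run per kit protocol. Inhibition lowers the signal, and IC50 is the compound concentration halving the normalised readout.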

[2] = HEK293 TOP reporter cell line, Wnt-3a at EC50, 16 hours incubation, compound dilution series 50 μM to 15 nM
[3] = Homo sapiens, HEK293, 16 h, HEK293 TOP reporter cell line, Wnt-3a at EC50, 16 hours incubation, compound dilution series 50 μM to 15 nM
[4] = Homo sapiens, HEK293, 16 h, HEK293 TOP reporter cells, Wnt3a at EC50, 16 hours, luciferase

How did the IC50 [1, 2] turn out when CC(CN1CCOCC1)NC(=O)c1[nH]cnc1C(=O)Nc1ccc(NC(=O)c2ccc(F)cc2Cl)cc1 (single isomer, unassigned; enantiomer 1) [Example 269, N^4-{4-[(2-chloro-4-fluorobenzoyl)amino]phenyl}-N^5-[1-(morpholin-4-yl)propan-2-yl]-1H-imidazole-4,5-dicarboxamide (enantiomer 1)] was run?
Its IC50 is 0.44 µM.

And the IC50 (TNKS1)?
The IC50 was 0.08 µM.

How did the IC50 [1, 2] turn out when CC(CN1CCOCC1)NC(=O)c1[nH]cnc1C(=O)Nc1ccc(NC(=O)c2ccc(F)cc2)cc1 (single isomer, unassigned; enantiomer 1) [Example 295, N^4-{4-[(4-fluorobenzoyl)amino]phenyl}-N^5-[1-(morpholin-4-yl)propan-2-yl]-1H-imidazole-4,5-dicarboxamide (enantiomer 1)] was run?
Its IC50 is 0.69 µM.

And the IC50 (TNKS1)?
Its IC50 is over 0.5 µM.

What does the source list for CC(CN1CCOCC1)NC(=O)c1[nH]cnc1C(=O)Nc1ccc(NC(=O)c2ccc(F)cc2)cc1 (single isomer, unassigned; enantiomer 2) [Example 296, N^4-{4-[(4-fluorobenzoyl)amino]phenyl}-N^5-[1-(morpholin-4-yl)propan-2-yl]-1H-imidazole-4,5-dicarboxamide (enantiomer 2)]?
IC50 [1, 2]: 6.45 µM; IC50 (TNKS1): > 0.5 µM

Which results are given for COC(=O)c1nc[nH]c1C(=O)Nc1ccc(NC(=O)c2ccc(F)cc2Cl)cc1 [Example 13, Methyl 5-({4-[(2-chloro-4-fluorobenzoyl)amino]phenyl}carbamoyl)-1H-imidazole-4-carboxylate]?
IC50 [1, 3]: 0.13 µM; IC50 [1, 4]: 0.13 µM; IC50 (TNKS1): 0.06 µM

CN(C)CCNC(=O)c1ncoc1C(=O)Nc1ccc(NC(=O)c2ccc(F)cc2Cl)cc1 [Example 31, N^5-{4-[(2-chloro-4-fluorobenzoyl)amino]phenyl}-N^4-[2-(dimethylamino)ethyl]-1,3-oxazole-4,5-dicarboxamide] was tested. Which IC50 [1, 3] did it give?
The IC50 was 1.6 µM.

What about the IC50 [1, 4] of the same compound?
The IC50 was 1.6 µM.

What about the IC50 (TNKS1) of the same compound?
Its IC50 is 0.13 µM.

For O=C(Nc1ccc(NC(=O)c2[nH]cnc2C(=O)NCCN2CCCCC2)cc1)c1ccc(F)cc1 [Example 33, N^4-{4-[(4-fluorobenzoyl)amino]phenyl}-N^5-[2-(piperidin-1-yl)ethyl]-1H-imidazole-4,5-dicarboxamide], which IC50 [1, 3] is on record?
The IC50 was 0.45 µM.

What about the IC50 [1, 4] of the same compound?
The IC50 was 0.63 µM.

What about the IC50 (TNKS1) of the same compound?
Its IC50 is over 0.5 µM.

For CNC(=O)c1nc[nH]c1C(=O)Nc1ccc(NC(=O)c2c(C)cc(C)cc2C)cc1 [Example 35, N^5-{4-[(mesitylcarbonyl)amino]phenyl}-N^4-methyl-1H-imidazole-4,5-dicarboxamide], which IC50 [1, 3] is on record?
The IC50 was 0.76 µM.

What about the IC50 [1, 4] of the same compound?
Its IC50 is 0.76 µM.

What about the IC50 (TNKS1) of the same compound?
The IC50 was over 0.5 µM.

Which results are given for CNC(=O)c1nc[nH]c1C(=O)Nc1ccc(NC(=O)c2ccccc2Br)cc1 [Example 37, N^5-{4-[(2-bromobenzoyl)amino]phenyl}-N^4-methyl-1H-imidazole-4,5-dicarboxamide]?
IC50 [1, 3]: 0.33 µM; IC50 [1, 4]: 0.33 µM; IC50 (TNKS1): 0.33 µM

How did the IC50 [1, 3] turn out when O=C(Nc1ccc(NC(=O)c2[nH]cnc2C(=O)N2CC(F)C2)cc1)c1ccc(F)cc1Cl [Example 41, N-{4-[(2-chloro-4-fluorobenzoyl)amino]phenyl}-4-[(3-fluoroazetidin-1-yl)carbonyl]-1H-imidazole-5-carboxamide] was run?
The IC50 was 0.09 µM.

And the IC50 (TNKS1)?
The IC50 was over 0.5 µM.

O=C(Nc1ccc(NC(=O)c2[nH]cnc2C(=O)NC2CC2)cc1)c1ccc(F)cc1Cl [Example 45, N^5-{4-[(2-chloro-4-fluorobenzoyl)amino]phenyl}-N^4-cyclopropyl-1H-imidazole-4,5-dicarboxamide] was tested. Which IC50 [1, 3] did it give?
The IC50 was 0.19 µM.

What about the IC50 (TNKS1) of the same compound?
The IC50 was 0.07 µM.

Which results are given for O=C(Nc1ccc(NC(=O)c2[nH]cnc2C(=O)N2CC(F)C2)cc1)c1cc(F)c(F)cc1Cl [Example 47, N-{4-[(2-chloro-4,5-difluorobenzoyl)amino]phenyl}-4-[(3-fluoroazetidin-1-yl)carbonyl]-1H-imidazole-5-carboxamide]?
IC50 [1, 3]: 0.34 µM; IC50 (TNKS1): > 0.5 µM

How did the IC50 [1, 3] turn out when O=C(Nc1ccc(NC(=O)c2[nH]cnc2C(=O)NCCC2CC2)cc1)c1cc(F)c(F)cc1Cl [Example 49, N^5-{4-[(2-chloro-4,5-difluorobenzoyl)amino]phenyl}-N^4-(2-cyclopropylethyl)-1H-imidazole-4,5-dicarboxamide] was run?
Its IC50 is 0.35 µM.

What about the IC50 (TNKS1) of the same compound?
Its IC50 is over 0.5 µM.

With COC(=O)c1nc[nH]c1C(=O)Nc1ccc(NC(=O)c2ccccc2Cl)c(C)c1 [Example 86, methyl-5-({4-[(2-chlorobenzoyl)amino]-3-methylphenyl}carbamoyl)-1H-imidazole-4-carboxylate] as the compound, how does the IC50 [1, 3] read?
The IC50 was 0.42 µM.

Cc1cc(NC(=O)c2[nH]cnc2C(=O)NCCN2CCCCC2)ccc1NC(=O)c1ccccc1Cl [Example 89, N^5-{4-[(2-chlorobenzoyl)amino]-3-methylphenyl}-N^4-[2-(piperidin-1-yl)ethyl]-1H-imidazole-4,5-dicarboxamide] was tested. Which IC50 [1, 3] did it give?
The IC50 was 0.6 µM.

For COC(=O)c1nc[nH]c1C(=O)Nc1ccc(NC(=O)c2ccc(F)cc2Cl)c(OC)c1 [Example 94, methyl 5-({4-[(2-chloro-4-fluorobenzoyl)amino]-3-methoxyphenyl}carbamoyl)-1H-imidazole-4-carboxylate], which IC50 [1, 3] is on record?
Its IC50 is 0.83 µM.

Which IC50 [1, 3] does the source give for CNC(=O)c1nc[nH]c1C(=O)Nc1ccc(NC(=O)c2ccc(F)cc2Cl)c(OC)c1 [Example 95, N^5-{4-[(2-chloro-4-fluorobenzoyl)amino]-3-methoxyphenyl}-N^4-methyl-1H-imidazole-4,5-dicarboxamide] here?
Its IC50 is 0.27 µM.

With COc1cc(NC(=O)c2[nH]cnc2C(=O)NCCN(C)C)ccc1NC(=O)c1ccc(F)cc1Cl [Example 96, N^5-{4-[(2-chloro-4-fluorobenzoyl)amino]-3-methoxyphenyl}-N^4-[2-(dimethylamino)ethyl]-1H-imidazole-4,5-dicarboxamide] as the compound, how does the IC50 [1, 3] read?
The IC50 was 0.31 µM.

How did the IC50 [1, 3] turn out when COC(=O)c1nc[nH]c1C(=O)Nc1ccc(NC(=O)c2ccccc2Cl)c(OC)c1 [Example 98, methyl 5-({4-[(2-chlorobenzoyl)amino]-3-methoxyphenyl}carbamoyl)-1H-imidazole-4-carboxylate] was run?
The IC50 was 1.15 µM.

With COc1cc(NC(=O)c2[nH]cnc2C(=O)NCCN(C)C)ccc1NC(=O)c1ccccc1Cl [Example 100, N^5-{4-[(2-chlorobenzoyl)amino]-3-methoxyphenyl}-N^4-[2-(dimethylamino)ethyl]-1H-imidazole-4,5-dicarboxamide] as the compound, how does the IC50 [1, 3] read?
The IC50 was 0.79 µM.

COC(=O)c1nc[nH]c1C(=O)Nc1ccc(NC(=O)c2ccc(F)cc2)c(OC)c1 [Example 102, methyl 5-({4-[(4-fluorobenzoyl)amino]-3-methoxyphenyl}carbamoyl)-1H-imidazole-4-carboxylate] was tested. Which IC50 [1, 3] did it give?
Its IC50 is 50 µM.

For CNC(=O)c1[nH]c(C(C)C)nc1C(=O)Nc1ccc(NC(=O)c2ccc(F)cc2Cl)cc1 [Example 106, N^4-{4-[(2-chloro-4-fluorobenzoyl)amino]phenyl}-2-isopropyl-N^5-methyl-1H-imidazole-4,5-dicarboxamide], which IC50 [1, 3] is on record?
Its IC50 is 27 µM.

How did the IC50 [1, 3] turn out when CNC(=O)c1nc[nH]c1C(=O)Nc1ccc(NC(=O)c2ccccc2Cl)nc1 [Example 112, N^5-{6-[(2-chlorobenzoyl)amino]pyridin-3-yl}-N^4-methyl-1H-imidazole-4,5-dicarboxamide] was run?
The IC50 was 2.55 µM.

For CN(C)CCNC(=O)c1nc[nH]c1C(=O)Nc1ccc(NC(=O)c2ccccc2Cl)nc1 [Example 113, N^5-{6-[(2-chlorobenzoyl)amino]pyridin-3-yl}-N^4-[2-(dimethylamino)ethyl]-1H-imidazole-4,5-dicarboxamide], which IC50 [1, 3] is on record?
Its IC50 is 0.46 µM.

Reference: US9884063B2, “Amido-substituted azole compounds” (Bayer Pharma Aktiengesellschaft, priority 2014, dated 2018)
